This note sets out measurements from patent US9216999B2, “Substituted pyrrolo[2,3-h][1,6]naphthyridines and compositions thereof as JAK inhibitors” (priority 2011, dated 2015).

The IC50 is the concentration that inhibits the measured activity by half. A lower IC50 goes with inhibition by little substance.

Read-outs that look alike come from different tables or passages of the source.

Common to all, as to assay type: biochemical
In one test the target is JAK1 (Homo sapiens (Human), UniProt P23458). Nature of the test: Enzyme assay (Assay Example^a 1), JAK1. The note with it: ATP 100 μM.
A further test has as its target JAK2 (Homo sapiens (Human), UniProt O60674). Briefly: Enzyme assay (Assay Example^a 1), JAK2.
The next test concerns the target JAK3 (Homo sapiens (Human), UniProt P52333). Nature of the test: Enzyme assay (Assay Example^a 1), JAK3.
Another test has as its target Tyk2 (Homo sapiens (Human), UniProt P29597). Nature of the test: Enzyme assay (Assay Example^a 1), Tyk2. To be noted: ATP 100 μM.

Sequence of JAK3 (P52333 whole entry): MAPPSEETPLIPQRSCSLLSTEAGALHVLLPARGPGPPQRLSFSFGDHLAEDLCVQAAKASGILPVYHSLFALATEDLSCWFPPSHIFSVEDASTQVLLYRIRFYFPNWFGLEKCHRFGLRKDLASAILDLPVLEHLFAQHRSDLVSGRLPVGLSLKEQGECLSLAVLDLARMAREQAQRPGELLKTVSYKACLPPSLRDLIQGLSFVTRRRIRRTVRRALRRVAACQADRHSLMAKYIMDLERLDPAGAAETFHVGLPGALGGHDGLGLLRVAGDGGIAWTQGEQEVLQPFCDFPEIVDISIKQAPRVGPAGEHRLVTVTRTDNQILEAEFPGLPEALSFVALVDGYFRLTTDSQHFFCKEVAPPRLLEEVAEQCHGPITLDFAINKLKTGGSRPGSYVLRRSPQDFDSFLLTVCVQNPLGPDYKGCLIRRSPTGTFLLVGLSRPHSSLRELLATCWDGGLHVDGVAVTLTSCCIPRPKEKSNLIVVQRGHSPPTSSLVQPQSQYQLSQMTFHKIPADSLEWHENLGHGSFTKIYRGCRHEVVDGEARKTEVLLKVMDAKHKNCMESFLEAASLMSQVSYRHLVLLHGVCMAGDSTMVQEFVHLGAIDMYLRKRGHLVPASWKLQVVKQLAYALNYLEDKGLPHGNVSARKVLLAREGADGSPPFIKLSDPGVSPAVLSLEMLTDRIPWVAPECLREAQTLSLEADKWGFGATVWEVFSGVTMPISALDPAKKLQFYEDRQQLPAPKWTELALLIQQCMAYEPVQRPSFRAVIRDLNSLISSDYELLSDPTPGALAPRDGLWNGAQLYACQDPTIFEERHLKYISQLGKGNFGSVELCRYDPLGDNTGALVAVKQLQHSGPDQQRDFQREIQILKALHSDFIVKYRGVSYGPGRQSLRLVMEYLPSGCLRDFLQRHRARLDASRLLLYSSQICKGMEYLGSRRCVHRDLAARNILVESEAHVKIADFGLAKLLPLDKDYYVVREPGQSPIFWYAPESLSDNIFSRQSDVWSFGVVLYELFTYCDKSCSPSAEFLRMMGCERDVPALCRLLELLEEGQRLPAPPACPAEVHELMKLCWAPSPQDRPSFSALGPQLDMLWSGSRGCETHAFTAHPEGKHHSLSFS
Sequence of Tyk2 (P29597 whole entry): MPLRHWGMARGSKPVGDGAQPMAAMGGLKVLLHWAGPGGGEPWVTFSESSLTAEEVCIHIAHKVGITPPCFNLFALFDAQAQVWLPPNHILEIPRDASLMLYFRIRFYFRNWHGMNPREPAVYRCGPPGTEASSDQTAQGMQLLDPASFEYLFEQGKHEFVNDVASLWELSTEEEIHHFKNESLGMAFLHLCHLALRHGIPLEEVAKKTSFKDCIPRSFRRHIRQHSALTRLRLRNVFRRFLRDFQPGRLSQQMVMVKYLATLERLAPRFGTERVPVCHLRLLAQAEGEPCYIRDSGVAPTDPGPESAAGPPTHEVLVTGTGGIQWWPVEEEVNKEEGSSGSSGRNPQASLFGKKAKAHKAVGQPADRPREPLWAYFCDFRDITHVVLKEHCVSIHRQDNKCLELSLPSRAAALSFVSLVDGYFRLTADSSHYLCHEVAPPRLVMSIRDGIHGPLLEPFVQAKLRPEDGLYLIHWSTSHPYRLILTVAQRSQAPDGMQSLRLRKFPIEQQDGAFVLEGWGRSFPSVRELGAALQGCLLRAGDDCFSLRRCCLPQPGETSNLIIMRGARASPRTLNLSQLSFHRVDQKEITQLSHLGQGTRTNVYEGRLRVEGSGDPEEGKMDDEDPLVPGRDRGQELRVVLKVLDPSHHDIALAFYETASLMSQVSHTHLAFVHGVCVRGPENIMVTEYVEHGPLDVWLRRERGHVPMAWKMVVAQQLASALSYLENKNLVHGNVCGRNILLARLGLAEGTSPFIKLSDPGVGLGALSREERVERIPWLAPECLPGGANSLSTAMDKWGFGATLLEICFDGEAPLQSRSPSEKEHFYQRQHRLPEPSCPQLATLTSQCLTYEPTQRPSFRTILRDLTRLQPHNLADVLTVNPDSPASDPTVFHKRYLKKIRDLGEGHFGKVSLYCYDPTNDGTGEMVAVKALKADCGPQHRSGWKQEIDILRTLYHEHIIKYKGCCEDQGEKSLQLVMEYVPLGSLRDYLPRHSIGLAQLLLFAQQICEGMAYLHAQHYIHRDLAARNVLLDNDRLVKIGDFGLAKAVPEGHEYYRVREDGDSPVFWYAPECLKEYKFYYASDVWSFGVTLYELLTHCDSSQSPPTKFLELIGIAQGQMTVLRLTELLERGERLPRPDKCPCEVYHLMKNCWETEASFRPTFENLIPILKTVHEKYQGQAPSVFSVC

For `N#CCOc1ccc(CN2CCC(c3nnn4cnc5[nH]ccc5c34)CC2)cc1` [compound 213, 2-(4-{[4-(7H-pyrrolo[3,2-e][1,2,3]triazolo[1,5-c]pyrimidin-1-yl)piperidin-1-yl]methyl}phenoxy)acetonitrile], the IC50 was 0.024 µM against JAK1, 0.19 µM at JAK2 (ATP 100 μM), over 1 µM against JAK3 (ATP 100 μM) and over 1 µM at Tyk2.
In the case of `Clc1ccc(CN2CCC(c3nnn4cnc5[nH]ccc5c34)CC2)cn1` [compound 214, 1-{1-[(6-chloropyridin-3-yl)methyl]piperidin-4-yl}-7H-pyrrolo[3,2-e][1,2,3]triazolo[1,5-c]pyrimidine], the IC50 came out at 0.0026 µM against JAK1, 0.013 µM against JAK2 (ATP 100 μM), 0.04 µM against JAK3 (ATP 100 μM) and 0.29 µM against Tyk2.
For `C(=C\c1ccco1)/CN1CCC(c2nnn3cnc4[nH]ccc4c23)CC1` [compound 215, (E)-1-{1-[3-(furan-2-yl)allyl]piperidin-4-yl}-7H-pyrrolo[3,2-e][1,2,3]triazolo[1,5-c]pyrimidine], in that order: 0.026 µM, 0.25 µM, over 1 µM and over 1 µM.
For `CN1CCC(c2nnn3cnc4[nH]ccc4c23)CC1` [compound 216, 1-(1-methylpiperidin-4-yl)-7H-pyrrolo[3,2-e][1,2,3]triazolo[1,5-c]pyrimidine], the IC50 against JAK1 is 0.38 µM; at JAK2 it was over 1 µM; at JAK3 (ATP 100 μM) it was over 1 µM; at Tyk2 it was over 1 µM.
For the compound `Clc1n[nH]c2ccc(CN3CCC(c4nnn5cnc6[nH]ccc6c45)CC3)cc12` [compound 217, 1-{1-[(3-chloro-1H-indazol-5-yl)methyl]piperidin-4-yl}-7H-pyrrolo[3,2-e][1,2,3]triazolo[1,5-c]pyrimidine], the 50% inhibitory concentration (IC50) against JAK1 was 0.08 µM; against JAK2 (ATP 100 μM), 0.18 µM; against JAK3 (ATP 100 μM), 0.38 µM; on Tyk2 it was over 1 µM.
On to `c1cnc2cc(CN3CCC(c4nnn5cnc6[nH]ccc6c45)CC3)ccc2n1` [compound 218, 1-[1-(quinoxalin-6-ylmethyl)piperidin-4-yl]-7H-pyrrolo[3,2-e][1,2,3]triazolo[1,5-c]pyrimidine], for which the IC50 was 0.028 µM on JAK1, 0.14 µM against JAK2 (ATP 100 μM), over 1 µM on JAK3 (ATP 100 μM) and over 1 µM against Tyk2.
As to `c1cc2c(ncn3nnc(C4CCN(Cc5cocn5)CC4)c23)[nH]1` [compound 219, 4-{[4-(7H-pyrrolo[3,2-e][1,2,3]triazolo[1,5-c]pyrimidin-1-yl)piperidin-1-yl]methyl}oxazole], the IC50 at JAK1 turned out to be 0.039 µM; at JAK2 (ATP 100 μM), 0.081 µM; at JAK3 (ATP 100 μM) it was 0.62 µM; on Tyk2 it was 0.97 µM.
For `FC(F)Oc1ccc(CN2CCC(c3nnn4cnc5[nH]ccc5c34)CC2)cc1` [compound 220, 1-{1-[4-(difluoromethoxy)benzyl]piperidin-4-yl}-7H-pyrrolo[3,2-e][1,2,3]triazolo[1,5-c]pyrimidine], in that order: 0.013 µM, 0.086 µM, 0.62 µM and over 1 µM.
For `c1cn(-c2ccc(CN3CCC(c4nnn5cnc6[nH]ccc6c45)CC3)cc2)cn1` [compound 221, 1-{1-[4-(1H-imidazol-1-yl)benzyl]piperidin-4-yl}-7H-pyrrolo[3,2-e][1,2,3]triazolo[1,5-c]pyrimidine], in that order: 0.018 µM, 0.09 µM, over 1 µM and over 1 µM.
For `N#Cc1ccc(CN2CCC(c3nnn4cnc5[nH]ccc5c34)CC2)cc1F` [compound 222, 4-{[4-(7H-pyrrolo[3,2-e][1,2,3]triazolo[1,5-c]pyrimidin-1-yl)piperidin-1-yl]methyl}-2-fluorobenzonitrile] the same measures were 0.0035 µM, 0.033 µM, 0.32 µM and 0.77 µM.
As to `Fc1cc(C(F)(F)F)cc(F)c1CN1CCC(c2nnn3cnc4[nH]ccc4c23)CC1` [compound 224, 1-{1-[2,6-difluoro-4-(trifluoromethyl)benzyl]piperidin-4-yl}-7H-pyrrolo[3,2-e][1,2,3]triazolo[1,5-c]pyrimidine], the IC50 was found to be 0.002 µM against JAK1, 0.012 µM against JAK2 (ATP 100 μM), 0.43 µM on JAK3 (ATP 100 μM) and 0.95 µM against Tyk2.
For `O=C1COc2ccc(CN3CCC(c4nnn5cnc6[nH]ccc6c45)CC3)cc2N1` [compound 225, 6-{[4-(7H-pyrrolo[3,2-e][1,2,3]triazolo[1,5-c]pyrimidin-1-yl)piperidin-1-yl]methyl}-2H-benzo[b][1,4]oxazin-3(4H)-one], in that order: 0.021 µM, 0.2 µM, over 1 µM and over 1 µM.
Take `CN(CCC#N)c1ccc(CN2CCC(c3nnn4cnc5[nH]ccc5c34)CC2)cc1` [compound 226, 3-[(4-{[4-(7H-pyrrolo[3,2-e][1,2,3]triazolo[1,5-c]pyrimidin-1-yl)piperidin-1-yl]methyl}phenyl)(methyl)amino]propanenitrile]: the IC50 was 0.28 µM against JAK1, over 1 µM on JAK2 (ATP 100 μM), over 1 µM on JAK3 (ATP 100 μM) and over 1 µM against Tyk2.
Consider `FC1(F)Oc2ccc(CN3CCC(c4nnn5cnc6[nH]ccc6c45)CC3)cc2O1` [compound 227, 1-{1-[(2,2-Difluorobenzo[d][1,3]dioxol-5-yl)methyl]piperidin-4-yl}-7H-pyrrolo[3,2-e][1,2,3]triazolo[1,5-c]pyrimidine], for which the IC50 against JAK1 was 0.0025 µM; on JAK2 (ATP 100 μM) it was 0.021 µM; against JAK3 (ATP 100 μM), 0.079 µM; against Tyk2, 0.57 µM.
As to `Clc1ccc(CN2CCC(c3nnn4cnc5[nH]ccc5c34)CC2)o1` [compound 228, 1-{1-[(5-chlorofuran-2-yl)methyl]piperidin-4-yl}-7H-pyrrolo[3,2-e][1,2,3]triazolo[1,5-c]pyrimidine], the IC50 came out at 0.0016 µM against JAK1, 0.0044 µM on JAK2 (ATP 100 μM), 0.17 µM against JAK3 (ATP 100 μM) and 0.1 µM at Tyk2.
For `FC1(F)Oc2cccc(CN3CCC(c4nnn5cnc6[nH]ccc6c45)CC3)c2O1` [compound 229, 1-{1-[(2,2-difluorobenzo[d][1,3]dioxol-4-yl)methyl]piperidin-4-yl}-7H-pyrrolo[3,2-e][1,2,3]triazolo[1,5-c]pyrimidine] the same measures were 0.039 µM, 0.087 µM, over 1 µM and over 1 µM.
With `N#C/C(=C\N1CCC(c2nnn3cnc4[nH]ccc4c23)CC1)c1ccccc1` [compound 230, (Z)-3-[4-(7H-pyrrolo[3,2-e][1,2,3]triazolo[1,5-c]pyrimidin-1-yl)piperidin-1-yl]-2-phenylacrylonitrile], the IC50 against JAK1 is 0.035 µM; on JAK2 (ATP 100 μM), 0.13 µM; against JAK3 (ATP 100 μM), over 1 µM; against Tyk2, over 1 µM.
On to `Clc1ccc(CN2CCC(c3nnn4cnc5[nH]ccc5c34)CC2)c(Cl)n1` [compound 231, 1-{1-[(2,6-dichloropyridin-3-yl)methyl]piperidin-4-yl}-7H-pyrrolo[3,2-e][1,2,3]triazolo[1,5-c]pyrimidine], for which the IC50 at JAK1 was found to be 0.0043 µM; on JAK2 (ATP 100 μM) it was 0.023 µM; at JAK3 (ATP 100 μM), 0.23 µM; on Tyk2, 0.61 µM.
In the case of `Brc1cc(CN2CCC(c3nnn4cnc5[nH]ccc5c34)CC2)sc1Br` [compound 233, 1-{1-[(4,5-dibromothiophen-2-yl)methyl]piperidin-4-yl}-7H-pyrrolo[3,2-e][1,2,3]triazolo[1,5-c]pyrimidine], the IC50 is 0.021 µM against JAK1, 0.071 µM against JAK2 (ATP 100 μM), over 1 µM against JAK3 and over 1 µM on Tyk2.
For `c1cc2c(ncn3nnc(C4CCN(Cc5cnc(N6CCOCC6)s5)CC4)c23)[nH]1` [compound 234, 4-(5-{[4-(7H-pyrrolo[3,2-e][1,2,3]triazolo[1,5-c]pyrimidin-1-yl)piperidin-1-yl]methyl}thiazol-2-yl)morpholine], the IC50 was 0.36 µM against JAK1, 0.88 µM against JAK2 (ATP 100 μM), over 1 µM against JAK3 (ATP 100 μM) and over 1 µM at Tyk2.
On to `Brc1csc(CN2CCC(c3nnn4cnc5[nH]ccc5c34)CC2)c1` [compound 237, 1-{1-[(4-bromothiophen-2-yl)methyl]piperidin-4-yl}-7H-pyrrolo[3,2-e][1,2,3]triazolo[1,5-c]pyrimidine], for which the IC50 on JAK1 is 0.0015 µM; against JAK2 (ATP 100 μM) it was 0.01 µM; against JAK3 (ATP 100 μM), 0.41 µM; at Tyk2, over 1 µM.
For `Brc1ccc(CN2CCC(c3nnn4cnc5[nH]ccc5c34)CC2)s1` [compound 238, 1-{1-[(5-bromothiophen-2-yl)methyl]piperidin-4-yl}-7H-pyrrolo[3,2-e][1,2,3]triazolo[1,5-c]pyrimidine], in that order: 0.00079 µM, 0.0046 µM, 0.055 µM and 0.11 µM.
On to `c1cc(CN2CCC(c3nnn4cnc5[nH]ccc5c34)CC2)ccn1` [compound 239, 1-[1-(pyridin-4-ylmethyl)piperidin-4-yl]-7H-pyrrolo[3,2-e][1,2,3]triazolo[1,5-c]pyrimidine], for which the IC50 on JAK1 was determined as 0.0081 µM; on JAK2 (ATP 100 μM), 0.035 µM; on JAK3 (ATP 100 μM), 0.61 µM; against Tyk2 it was 0.65 µM.
Regarding `c1cc2c(ncn3nnc(C4CCN(Cc5cscn5)CC4)c23)[nH]1` [compound 240, 4-{[4-(7H-pyrrolo[3,2-e][1,2,3]triazolo[1,5-c]pyrimidin-1-yl)piperidin-1-yl]methyl}thiazole], the IC50 at JAK1 is 0.039 µM; at JAK2 (ATP 100 μM) it was 0.11 µM; at JAK3 (ATP 100 μM) it was 0.6 µM; at Tyk2, over 1 µM.
For `N#Cc1ccc(CN2CCC(c3nnn4cnc5[nH]ccc5c34)CC2)cc1C#N` [compound 242, 4-{[4-(7H-pyrrolo[3,2-e][1,2,3]triazolo[1,5-c]pyrimidin-1-yl)piperidin-1-yl]methyl}phthalonitrile] the same measures were 0.0065 µM, 0.052 µM, 0.96 µM and over 1 µM.
